# From patent US20080145313A1, “Compositions and Methods for the Treatment and Prevention of Neoplastic Disorders” (Genesis Research & Development Corporation Limited, priority 2006, published 2008)
# System: A549 cells
# Assay: Growth inhibition of siRNA-transfected A549 cells, SYBR Green I DNA content
# Format: cell-based, human
# Settings: 10 nM siRNA; DNA content 96 hours after transfection
# Outline: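 A549 cells reverse-transfected with 10 nM Stealth siRNAs via Lipofectamine RNAiMAX, seeded at 5×10^3 cells/cm^2 in RPMI 1640/10% FCS; non-specific siRNA control. DNA content read 96 h post-transfection by SYBR Green I fluorescence (ex 485/em 535 nm) after freeze-thaw and Triton X-100 lysis; mean of three wells.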
row,Substance,Growth Inhibition in A549 cells
1,SEQ ID NO: 4823: siRNA targeting PRPS1 (chain 1 TCAAGATGGCATAAACTCTGGTGGC; chain 2 UCAAGAUGGCAUAAACUCUGGUGGC; chemistry not given here; one strand in two spellings),+ (inhibits by at least 50%)
2,SEQ ID NO: 4997: siRNA targeting DGUOK (chain 1 GCCAGGAAGCCAGTACAGATCTTTG; chain 2 GCCAGGAAGCCAGUACAGAUCUUUG; chemistry not given here; one strand in two spellings),+ (inhibits by at least 50%)
3,SEQ ID NO: 4844: siRNA targeting NADSYN (chain 1 TTTCTATGCACCGAAACTGCCAAGG; chain 2 UUUCUAUGCACCGAAACUGCCAAGG; chemistry not given here; one strand in two spellings),− (no growth inhibition with any siRNA)
4,SEQ ID NO: 4847: siRNA targeting FLAD1 (chain 1 TGCAATGGTGGCTACCTCATCAGGT; chain 2 UGCAAUGGUGGCUACCUCAUCAGGU; chemistry not given here; one strand in two spellings),− (no growth inhibition with any siRNA)
5,SEQ ID NO: 4840: siRNA targeting AK1 (chain 1 TAGCCATCAATCAGGAAGCCTTTGG; chain 2 UAGCCAUCAAUCAGGAAGCCUUUGG; chemistry not given here; one strand in two spellings),+ (inhibits by at least 50%)
6,SEQ ID NO: 5001: siRNA targeting DPYD (chain 1 GCTAGCATTATGTGCAGTTACAATA; chain 2 GCUAGCAUUAUGUGCAGUUACAAUA; chemistry not given here; one strand in two spellings),− (no growth inhibition with any siRNA)
7,SEQ ID NO: 4845: siRNA targeting FLAD1 (chain 1 TTTGAGTGGAACTGAACAGCTGGGT; chain 2 UUUGAGUGGAACUGAACAGCUGGGU; chemistry not given here; one strand in two spellings),+ (inhibits by at least 50%)
8,SEQ ID NO: 4843: siRNA targeting NADSYN (chain 1 ATGAGCTGCAAACAGAGGGCTCTTC; chain 2 AUGAGCUGCAAACAGAGGGCUCUUC; chemistry not given here; one strand in two spellings),− (no growth inhibition with any siRNA)
9,"SEQ ID NO: 4858: siRNA targeting ACLY (chain 1 TTCTTGATCAGCTTTCTCGTGAGGG; chain 2 UUCUUGAUCAGCUUUCUCGUGAGGG; Both strands are one antisense strand in DNA/RNA notation, chemistry not given here, further chemistry not given here; one strand in two spellings)",− (no growth inhibition with any siRNA)
10,SEQ ID NO: 4991: siRNA targeting TK1 (chain 1 GCACTGGATGGGACCTTCCAGAGGA; chain 2 GCACUGGAUGGGACCUUCCAGAGGA; chemistry not given here; one strand in two spellings),− (no growth inhibition with any siRNA)
11,"SEQ ID NO: 4877: siRNA targeting CTPS (chain 1 AGCACCTGCATACAACCAGATCTGG; chain 2 AGCACCUGCAUACAACCAGAUCUGG; Both strands are one antisense strand in DNA/RNA notation, chemistry not given here, further chemistry not given here; one strand in two spellings)",+ (inhibits by at least 50%)
12,"SEQ ID NO: 4875: siRNA targeting CTPS (chain 1 AATAACACACACTTGAGGTTCCAGG; chain 2 AAUAACACACACUUGAGGUUCCAGG; Both strands are one antisense strand in DNA/RNA notation, chemistry not given here, further chemistry not given here; one strand in two spellings)",++ (inhibits by at least 75%)
13,SEQ ID NO: 4998: siRNA targeting UMPS (chain 1 GAGTTGTGAAAGGCCTGCAAGAAGT; chain 2 GAGUUGUGAAAGGCCUGCAAGAAGU; chemistry not given here; one strand in two spellings),− (no growth inhibition with any siRNA)
14,SEQ ID NO: 4820: siRNA targeting PFKL (chain 1 TAGTCTCTGAGATCTTACCTTCCGC; chain 2 UAGUCUCUGAGAUCUUACCUUCCGC; chemistry not given here; one strand in two spellings),− (no growth inhibition with any siRNA)
15,"SEQ ID NO: 4860: siRNA targeting SLC25A5 (ANT2) (chain 1 ATGCCAGATTCCCTGCAAAGTAGCG; chain 2 AUGCCAGAUUCCCUGCAAAGUAGCG; Both strands are one antisense strand in DNA/RNA notation, chemistry not given here, further chemistry not given here; one strand in two spellings)",+ (inhibits by at least 50%)
16,SEQ ID NO: 4836: siRNA targeting DHFR (chain 1 AATATCTGAATTCATTCCTGAGCGG; chain 2 AAUAUCUGAAUUCAUUCCUGAGCGG; chemistry not given here; one strand in two spellings),+ (inhibits by at least 50%)
17,SEQ ID NO: 4815: siRNA targeting LDHA/5 (chain 1 ATTAAGACGGCTTTCTCCCTCTTGC; chain 2 AUUAAGACGGCUUUCUCCCUCUUGC; chemistry not given here; one strand in two spellings),− (no growth inhibition with any siRNA)
18,SEQ ID NO: 4808: siRNA targeting ARNT (HIF-1β) (chain 1 TCTCATGGAAGACTGCTGACCTTCC; chain 2 UCUCAUGGAAGACUGCUGACCUUCC; chemistry not given here; one strand in two spellings),− (no growth inhibition with any siRNA)
19,SEQ ID NO: 4825: siRNA targeting CPS1 (chain 1 AATACCTTCACCAAAGCAAGCCACC; chain 2 AAUACCUUCACCAAAGCAAGCCACC; chemistry not given here; one strand in two spellings),− (no growth inhibition with any siRNA)

# Same assay, conditions: A549 cells, 10 nM siRNA, DNA content 96 hours after transfection, transporter gene targets
row,Substance,Growth Inhibition in A549 cells by 10 nM siRNA
1,SEQ ID NO: 4945: siRNA targeting ATP2B3 (PMCA3) (chain 1 AATGTGTCCATGATCAAGTTCACCC; chain 2 AAUGUGUCCAUGAUCAAGUUCACCC; chemistry not given here; one strand in two spellings),+ (inhibits by at least 50%)
